Test results reported in the NIST ThermoML archive (doi:10.1016/j.fluid.2014.05.006).
± gives the expanded uncertainty stated by the source.

How the values were obtained:
[1] = relative permittivity at zero frequency (dimensionless); xn = mol fraction of the nth substance listed; details: 298 K, 94.77 kPa, Liquid, Parallel plate capacitor
[2] = relative permittivity at zero frequency (dimensionless); details: 298 K; 94.77 kPa; Liquid; Parallel plate capacitor

## Cn1ccnc1 [1-methylimidazole] + O
[1]; x2 = 0
  relative permittivity at zero frequency: 39.78 ± 4.2
[1]; x2 = 0.1
  relative permittivity at zero frequency: 40.98 ± 4.3
[1]; x2 = 0.2
  relative permittivity at zero frequency: 42.55 ± 4.5
[1]; x2 = 0.3
  relative permittivity at zero frequency: 45.87 ± 4.9
[1]; x2 = 0.4
  relative permittivity at zero frequency: 46.02 ± 4.9
[1]; x2 = 0.5
  relative permittivity at zero frequency: 48.53 ± 5.2
[1]; x2 = 0.6
  relative permittivity at zero frequency: 50.04 ± 5.3
[1]; x2 = 0.7
  relative permittivity at zero frequency: 50.99 ± 5.4
[1]; x2 = 0.8
  relative permittivity at zero frequency: 52 ± 5.5
[1]; x2 = 0.9
  relative permittivity at zero frequency: 53.01 ± 7.5

## O [water]
[2]
  relative permittivity at zero frequency: 80 ± 8.5

## O [water] + Cn1ccnc1
[1]; x1 = 1
  relative permittivity at zero frequency: 80 ± 8.5

## Cn1ccnc1 [1-methylimidazole]
[2]
  relative permittivity at zero frequency: 39.78 ± 4.2
